The subject of the test is P388. The experiment in a line: Cytotoxicity against mouse P388 cells. The class given is functional, cell-based.

In general, EC50 refers to the midpoint of the concentration-response curve. A low value points to a more potent agent. `Cn1c(=O)c2c(ncn2C)n(C)c1=N` registered an EC50 of over 10 µg/mL.

(Values after ChEMBL document CHEMBL1150714, “1,3,7-Trimethylguanine from the Sponge Latrunculia brevis” (J Nat Prod, 1987).)
